From patent US4049660A, “N-substituted derivatives of 4 (N-piperazinylmethyl) spiro dibenzocycloheptadi- (or tri-) ene-5, 2-dioxolane (1,3) their method of preparation and their application in therapeutics” (Delalande S.A., priority 1971, dated 1977)
Where two headings read alike, the source gives them in different places.

How the values were obtained:
[1] = system: bronchoconstrictions provoked by serotonine; assay: Antiserotonine: bronchoconstrictions provoked by intravenous serotonine in guinea pigs (Konzett and Rossler test); assay type: in vivo; settings: Cavia porcellus, serotonine bronchoconstriction, read-out: Test of Konzett and Rossler DE50
From the text: For purposes of comparison, compounds of the formula (I) were compared, as to their antiserotonine properties, with a respresentative sampling of compounds disclosed in U.S. Pat. No. 3,726,900. The comparison compounds tested have the formula [drawing 23]

[2] = system: painful stretchings following intraperitoneal injection of acetic acid; assay: Analgesic: painful stretchings following intraperitoneal acetic acid in mouse; assay type: in vivo; settings: 100 mg/kg/PO, read-out: Percentage reduction in the number of painful stretchings
From the text: The compounds of formula (I) administered orally to a mouse are capable of reducing the number of painful stretchings following the intraperitoneal injection of acetic acid.

[3] = system: ptosis caused by reserpine; assay: Anti-depressive: antagonism against ptosis caused by intravenous reserpine; assay type: in vivo; settings: for ED50: po, read-out: Antagonism against ptosis caused by reserpine (DE50)
Description: (§1) In this regard, the compounds of formula I differ unexpectedly from the compounds of U.S. Pat. No. 3,726,900, as shown by comparative testing.
(§2) The anti-depressive properties of additional analog compounds were tested by the same tests. In these tests, the comparison compounds had the formula [drawing 28] The specific compounds tested and the test results are indicated in Table XIII.

[4] = system: isolated duodenum of a rat (barium chloride); assay: Spasmolytic: contraction by barium chloride of isolated duodenum of a rat
Description: Compounds of formula I, introduced in the survival medium, are capable of opposing the contacting action of barium chloride on the isolated duodenum of a rat. This activity is determined either by taking papaverine as the standard or by calculating the DE50 of the compound tested.

[5] = Acute toxicity / mortality, oral, mice; assay type: in vivo; settings: mouse, in vivo; for mortality: read-out: Percentage of mortality with mice; for LD50: oral
From the text: As is shown by the preceding results and by those given in Table XIV below, the difference between pharmacologically active doses and lethal doses is sufficiently great to allow the use of compounds of formula (I) in therapeutics.

[6] = system: lethal effect of yohimbine; assay: Anti-depressive: potentialization of lethal effect of yohimbine; assay type: in vivo
Description: as §1, §2

[7] = system: ventricular fibrillations caused by inhaling chloroform; assay: Antiarythmic: ventricular fibrillations caused by inhaling chloroform in mouse; assay type: in vivo; settings: ip, intraperitoneal, read-out: Antagonism to fibrillations caused by chloroform with a mouse, DE50
From the text: Administered intraperitoneally, the compounds of formula (I) are able to protect the mouse against ventricular fibrillations caused by inhaling chloroform.

[8] = system: isolated ileum of a guinea pig (histamine); assay: Antihistamine: contraction by histamine of isolated ileum of a guinea pig
Description: The compounds of formula (I) introduced in the survival medium are able to oppose the contracting action of histamine on the isolated ileum of a guinea pig. This activity is calculated by the DE50 of the tested compounds.

urinary elimination = assay: Diuretic: volume of urine in mouse; assay type: in vivo; settings: 4 hours, versus controls, read-out: Percentage increase in urinary elimination
Description: The compounds of formula (I) administered orally to a mouse simultaneously with a volume of 1 ml of sodium chloride isotonic solute per 25 g of body weight are able to cause an increase of the volume of urine given compared with controls, this volume being measured for the 4 hours following administration.

arterial pressure = assay: Hypotensive: arterial pressure of anaesthetized rat; assay type: in vivo; settings: 2 mg/kg/IV
From the text: Administered intravenously to an anaesthetized rat, the compounds of formula (I) cause a lowering of arterial pressure.

[9] = system: cough caused by stimulation of the upper laryngeal nerve; assay: Anti-cough: cough caused by stimulation of the upper laryngeal nerve in an anaesthetized cat; assay type: in vivo; settings: 100 mg/kg/ID
[10] = mice, Table XI, read-out: LD50 (mice)
[11] = at 100 mg/kg/PO, result in words
[12] = at 50 mg/kg/PO, result in words

Question: With `CCOC(=O)CN1CCN(CC2COC3(O2)c2ccccc2CCc2ccccc23)CC1` (stereo not shown) [compound 70365] as the compound, how does the ED50 [1] read?
Answer: 0.6 mg/kg

Question: And the inhibition in vivo at 100 mg/kg [2]?
Answer: 75%

Question: What about the “Antagonism against ptosis caused by reserpine” value (“Antagonism” for short) ([3]; at 100 mg/kg/PO) of the same compound?
Answer: Inactive

Question: And the Spasmolytic activity ([4]; relative to papaverine as the standard)?
Answer: 3 × papaverine

Question: And the mortality ([5]; 1250 mg/kg/PO)?
Answer: ~50%

Question: And the LD50 [5, 10]?
Answer: 1250 mg/kg

Question: What about the “Potentialization of lethal effect of yohimbine” value (“Potentialization” for short) [6, 11] of the same compound?
Answer: Inactive

Question: For `C1=Cc2ccccc2C2(OCC(CN3CCCCC3)O2)c2ccccc21` (stereo not shown) [compound 70315, reference compound], which ED50 [1] is on record?
Answer: 1.4 mg/kg

Question: What about the “Antagonism” value ([3]; at 75 mg/kg/PO) of the same compound?
Answer: 45%

Question: And the LD50 [5, 10]?
Answer: 700 mg/kg

Question: For `CCC(C)NCC1COC2(O1)c1ccccc1CCc1ccccc12` (stereo not shown) [R = C4 H9 (s) (--Z-- = --CH2 --CH2 --), reference compound], which ED50 ([3]; Table XIII) is on record?
Answer: 45 mg/kg

Question: What about the LD50 ([5]; Table XIII, read-out: LD50) of the same compound?
Answer: 900 mg/kg

Question: And the “Potentialization” value ([6]; at 50 mg/kg/PO, Table XIII)?
Answer: ~40%

Question: With `CNCC1COC2(O1)c1ccccc1CCc1ccccc12` (stereo not shown) [R = CH3 (--Z-- = --CH2 --CH2 --), reference compound] as the compound, how does the ED50 ([3]; Table XIII) read?
Answer: 60 mg/kg

Question: And the LD50 ([5]; Table XIII, read-out: LD50)?
Answer: 850 mg/kg

Question: Which results are given for `C1=Cc2ccccc2C2(OCC(CN3CCCC3)O2)c2ccccc21` (stereo not shown) [compound 70301, reference compound]?
Answer: ED50 [1]: 0.4 mg/kg; LD50 [5, 10]: 425 mg/kg

Question: For `CCNCC1COC2(O1)c1ccccc1CCc1ccccc12` (stereo not shown) [R = C2 H5 (--Z-- = --CH2 --CH2 --), reference compound], which ED50 ([3]; Table XIII) is on record?
Answer: ~50 mg/kg

Question: And the LD50 ([5]; Table XIII, read-out: LD50)?
Answer: 550 mg/kg

Question: What does the source list for `CNC(=O)CN1CCN(CC2COC3(O2)c2ccccc2C=Cc2ccccc23)CC1` (stereo not shown) [compound 72188]?
Answer: ED50 [7]: 38 mg/kg; ED50 [1]: 0.25 mg/kg; inhibition in vivo at 100 mg/kg [2]: 60%; Antagonism against ptosis caused by reserpine [3, 12]: Inactive; mortality ([5]; 1100 mg/kg/PO): ~50%; LD50 [5, 10]: 1100 mg/kg; Antihistamine activity DE50 [8]: 1 µg/mL; change in vivo at 25 mg/kg (urinary elimination; 25 mg/kg/PO): 40%

Question: Which ED50 [7] does the source give for `CC(C)NC(=O)CN1CCN(CC2COC3(O2)c2ccccc2C=Cc2ccccc23)CC1` (stereo not shown) [compound 72134] here?
Answer: 65 mg/kg

Question: And the “Antagonism” value [3, 12]?
Answer: Inactive

Question: And the mortality ([5]; 1200 mg/kg/PO)?
Answer: ~50%

Question: What about the LD50 [5, 10] of the same compound?
Answer: 1200 mg/kg

Question: What about the “Antihistamine activity DE50” value [8] of the same compound?
Answer: 1 µg/mL

Question: What about the change in vivo at 50 mg/kg (urinary elimination; 50 mg/kg/PO) of the same compound?
Answer: 55%

Question: For `c1ccc(C(c2ccccc2)N2CCN(CC3COC4(O3)c3ccccc3CCc3ccccc34)CC2)cc1` (stereo not shown) [compound 70374], which “Antagonism” value ([3]; at 100 mg/kg/PO) is on record?
Answer: Inactive

Question: And the mortality ([5]; 2000 mg/kg/PO)?
Answer: 0%

Question: What about the LD50 ([5]; Table XII, read-out: LD50) of the same compound?
Answer: > 2000 mg/kg

Question: And the “Reduction of arterial pressure, duration” value (arterial pressure)?
Answer: 20 mm

Question: And the “Reduction of arterial pressure, intensity” value (arterial pressure)?
Answer: 35%

Question: What about the “Potentialization” value [6, 11] of the same compound?
Answer: Inactive

Question: Which ED50 [7] does the source give for `O=C(CN1CCN(CC2COC3(O2)c2ccccc2C=Cc2ccccc23)CC1)N1CCCCCC1` (stereo not shown) [compound 72176] here?
Answer: 100 mg/kg

Question: And the “DE50 (spasmolytic)” value [4]?
Answer: 3.50 µg/mL

Question: What about the mortality ([5]; 3400 mg/kg/PO) of the same compound?
Answer: ~50%

Question: And the “Antihistamine activity DE50” value [8]?
Answer: 0.5 µg/mL

Question: For `CCNCC1COC2(O1)c1ccccc1C=Cc1ccccc12` (stereo not shown) [R = C2 H5 (--Z-- = --CH = CH--), reference compound], which ED50 ([3]; Table XIII) is on record?
Answer: 70 mg/kg

Question: And the LD50 ([5]; Table XIII, read-out: LD50)?
Answer: 375 mg/kg

Question: What about the “Potentialization” value ([6]; at 50 mg/kg/PO, Table XIII) of the same compound?
Answer: 60%

Question: Which ED50 ([3]; Table XIII) does the source give for `CNCC1COC2(O1)c1ccccc1C=Cc1ccccc12` (stereo not shown) [R = CH3 (--Z-- = --CH = CH--), reference compound] here?
Answer: 25 mg/kg

Question: What about the LD50 ([5]; Table XIII, read-out: LD50) of the same compound?
Answer: 750 mg/kg

Question: What does the source list for `OCC(O)CN1CCN(CC2COC3(O2)c2ccccc2CCc2ccccc23)CC1` (stereo not shown) [compound 70405, 4'-N'-(2",3"-dihydroxy "-propyl)N-piperazinyl methyl spiro dibenzo (a,d) cycloheptadiene-5:2' dioxolane (1',3') dimaleate]?
Answer: Reduction of cough, duration [9]: 60 mm; Reduction of cough, intensity [9]: 100%; mortality ([5]; 1600 mg/kg/PO): ~50%; Reduction of arterial pressure, duration (arterial pressure): > 60 mm; Reduction of arterial pressure, intensity (arterial pressure): 40%

Question: Which “Antagonism” value ([3]; at 50 mg/kg/PO, Table XIII) does the source give for `CC(C)NCC1COC2(O1)c1ccccc1C=Cc1ccccc12` (stereo not shown) [R = C3 H7 (i) (--Z-- = --CH = CH--), reference compound] here?
Answer: 20%

Question: And the LD50 ([5]; Table XIII, read-out: LD50)?
Answer: 550 mg/kg
